For test [1], the target named is T1, phosphorylation-defective mutant of PPARγ (GFP-PPARg S82A) (Mus musculus, UniProt P37238, S112A).
T1 construct: expressed in transfected cells; host or cells: SHSY5Y neuroblastoma cells
T1 sequence (P37238 1-475 isoform P37238-2 S82A): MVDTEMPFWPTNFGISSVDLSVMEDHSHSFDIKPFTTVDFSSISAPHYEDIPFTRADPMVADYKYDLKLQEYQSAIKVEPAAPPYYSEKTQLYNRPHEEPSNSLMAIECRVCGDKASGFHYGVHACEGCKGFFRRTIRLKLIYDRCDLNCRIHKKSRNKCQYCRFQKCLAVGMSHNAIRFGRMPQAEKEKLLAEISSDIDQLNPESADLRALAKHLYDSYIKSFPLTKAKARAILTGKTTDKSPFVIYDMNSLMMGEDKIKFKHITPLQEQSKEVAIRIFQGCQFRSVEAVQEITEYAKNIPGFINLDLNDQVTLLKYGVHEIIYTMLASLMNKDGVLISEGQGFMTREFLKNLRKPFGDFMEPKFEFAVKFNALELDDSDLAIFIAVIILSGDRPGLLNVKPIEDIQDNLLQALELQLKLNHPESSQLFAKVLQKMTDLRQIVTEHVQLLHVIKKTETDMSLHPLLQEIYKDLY
Briefly: 3×PPRE luciferase reporter with phosphorylation-defective mutant PPARγ. To be noted: SHSY5Y cells, 10 uM, 18 hours. Type of test: cell-based. As for the experimental part: SHSY5Y neuroblastoma cells were transiently co-transfected with either a plasmid encoding wild type PPARγ or a phosphorylation-defective mutant of PPARγ (GFP-PPARg S82A), 3×PPRE luciferase plasmid and plasmid encoding renilla for transfection efficiency. Forty eight hours following transfection, cells were exposed to 10 uM of C19H24N3O5S5Pr for 18 hours.
(In general: A reporter such as luciferase makes a cellular process visible.)

For test [2], the target named is T2, PPARγ (Homo sapiens, UniProt P37231).
T2 sequence (P37231 1-505): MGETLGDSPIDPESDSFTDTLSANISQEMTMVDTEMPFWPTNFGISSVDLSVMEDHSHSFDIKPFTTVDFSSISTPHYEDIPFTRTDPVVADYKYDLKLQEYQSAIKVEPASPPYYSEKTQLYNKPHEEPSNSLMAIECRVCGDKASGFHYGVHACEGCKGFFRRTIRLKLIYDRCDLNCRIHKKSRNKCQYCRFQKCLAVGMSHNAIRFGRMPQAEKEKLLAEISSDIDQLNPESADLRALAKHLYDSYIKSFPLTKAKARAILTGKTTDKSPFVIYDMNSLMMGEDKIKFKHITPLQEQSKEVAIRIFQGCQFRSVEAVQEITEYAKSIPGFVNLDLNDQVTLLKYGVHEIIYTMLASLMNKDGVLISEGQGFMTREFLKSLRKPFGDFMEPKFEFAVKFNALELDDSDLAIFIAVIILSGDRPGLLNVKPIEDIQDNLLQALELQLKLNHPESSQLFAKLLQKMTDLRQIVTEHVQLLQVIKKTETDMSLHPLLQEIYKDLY
Briefly: 3×PPRE luciferase reporter, PPARγ activation in breast cancer cells. Type of test: cell-based. The arrangement: endogenous in cells; host or cells: MDA-MB-231, T47D (breast cancer). To be noted: 0 to 20 μM, 18 hours. From the text: To determine if C19H24N3O5S5Pr activation of PPARγ is dependent on expression of PPARγ in breast cancer cells, breast cancer cells MDA-MB-231 and T47D were transiently co-transfected with a 3×PPRE luciferase plasmid and renilla plasmid for transfection efficiency.

Another test has as its target T3, pCMX-Gal-mPPARγ-LBD (Mus musculus, UniProt P37238).
T3 construct: expressed in transfected cells; host or cells: SHEP-1 cells
T3 sequence (P37238 238-503 limits assumed): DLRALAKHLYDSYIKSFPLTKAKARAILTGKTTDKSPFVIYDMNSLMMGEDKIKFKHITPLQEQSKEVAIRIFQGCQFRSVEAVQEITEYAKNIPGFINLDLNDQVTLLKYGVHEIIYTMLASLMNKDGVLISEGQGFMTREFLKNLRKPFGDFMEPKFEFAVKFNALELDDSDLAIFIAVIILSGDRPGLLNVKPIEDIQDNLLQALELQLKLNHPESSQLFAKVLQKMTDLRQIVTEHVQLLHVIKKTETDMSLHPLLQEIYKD
Nature of the test: Gal4 chimeric receptor luciferase reporter (Method 2). It counts as cell-based. As to conditions: SHEP-1 cells, 3 μM, 5 μM, 10 μM and 20 μM. From the text:
In Method 2, SHEP-1 cancer cells were transfected with a reporter gene containing four copies of a Gal4 binding site (pMH100x4-TK-Luc) and chimeric receptors of a single PPAR isoform (pCMX-Gal-mPPARα-LBD, pCMX-Gal-mPPARδ-LBD, or pCMX-Gal-mPPARγ-LBD, respectively) as previously described in Kim et al, Toxicological Sciences, 85, (2005), pp. 585-593. When C19H24N3O5S5Pr binds to the ligand binding domain (LBD) of the chimeric receptor, the DNA binding domain of Gal4 binds to co-transfected Gal4 binding site and initiates transcription of the firefly luciferase.

Test [3] relates to SHEP-1 and MDA-MB-231 cancer cells. Nature of the test: Morphological changes of cancer cells. Type of test: cell-based. As to conditions: SHEP-1 5 μM, MDA-MB-231 10 μM, compound alone.
The subject of the next test is Bax, cytochrome C. As to conditions: 5 μM and 10 μM.
The test system of a further test is LC3 II. Briefly: LC3 II formation by Western blot. As to conditions: SHEP-1 and SHSY5Y cells, 5 μM and 10 μM, 4 hr, 8 hr and 18 hr. It counts as cell-based. For orientation: In western blotting, separated proteins are transferred to a membrane and probed.
The target of test [4] is T2, PPARγ. It counts as cell-based. Also on record: endogenous in cells; host or cells: SHSY5Y, SHEP1 / SHEP-1 (neuroblastoma). As to conditions: 18 hours. The method, then: To determine if C19H24N3O5S5Pr activates PPARγ, SHSY5Y and SHEP1 neuroblastoma cells were transiently co-transfected with a 3×PPRE luciferase plasmid and renilla plasmid for transfection efficiency. Forty eight hours following transfection, the cells were exposed to increased concentrations (0 to 10 μM) of 15d-PGJ2 and C19H24N3O5S5Pr for 18 hours. The fold increase in luciferase activity correlates with the PPARγ activity of the cell. PPARγ activity is determined by calculating the RLU/renilla/μg total protein.
To assess if C19H24N3O5S5Pr activation of PPARγ is dependent on expression of PPARγ neuroblastoma cells, neuroblastoma cells SHEP1 and SHSY5Y were transiently co-transfected with a 3×PPRE luciferase plasmid and renilla plasmid for transfection efficiency. Forty eight hours following transfection, cells were exposed to increased concentrations (0 to 20 μM) of C19H24N3O5S5Pr for 18 hours. PPARγ activity was calculated as luciferase RLU/renilla/μg total protein.

Like-named read-outs stand apart in the source and are kept apart here.

As for `CS(C)=O.CS(C)=O.[O-][n+]1ccccc1[S-].[O-][n+]1ccccc1[S-].[O-][n+]1ccccc1[S-].[Pr+3]` [C19H24N3O5S5Pr, praseodymium (2-mercaptopyridine N-oxide)(dimethylsulfoxide)], the “activation of phosphorylation-defective mutant PPARγ versus wild type” value in test [1] is listed as “significant activation of phosphorylation-defective mutant PPARγ”. Also, the “PPARγ activation, MDA-MB-231 versus T47D cells” value at PPARγ [2] is “activates PPARγ better in MDA-MB-231 cells, than in T47D cells”. The “luciferase activity, PPARγ LBD chimeric receptor” value on pCMX-Gal-mPPARγ-LBD is given as “induction of luciferase activity”. Further, the cell morphology result in test [3] is “rounded up and also lower in cell density”. In the test on Bax, cytochrome C (SHEP-1 cells, 18 hr and 24 hr), the Bax translocation result is “causes Bax translocation to the mitochondrial fraction” and the “cytochrome C release” value was “cytochrome C release into the cytosol”. Besides, in the test with Bax, cytochrome C (SHSY5Y cells, 24 hr), the Bax translocation entry is reported as “causes Bax translocation to the mitochondrial fraction” and the “cytochrome C release” value is listed as “cytochrome C release into the cytosol”. In addition, the “LC3 II induction” value in the test on LC3 II was “induction of phosphtidylethaonolamine (PE)-conjugated form of microtubule-associated protein 1 light chain 3 (LC3 II)”. In addition, the “PPARγ activation, SHEP1 versus SHSY5Y cells” value on PPARγ [4] (0 to 20 μM) was “activates PPARγ better in SHEP1 cells, than in SHSY5Y cells”. The “PPARγ activation (luciferase RLU/renilla/μg total protein)” value on PPARγ [4] (SHSY5Y and SHEP1 cells in 10% serum, 0 to 10 μM) is reported as “significant activation of PPARγ”.

The values are drawn from patent US8691851B2, “Lanthanide metal complexes useful in treating cancer” (National University of Singapore, priority 2009, dated 2014).
